Patent US8852619B2, “Compositions of dibromomalonamide and their use as biocides” (Dow Global Technologies LLC, priority 2009, dated 2014)
Where two headings read alike, the source gives them in different places.

Legend:
[1] = Growth inhibition assay (microtiter plate-based synergy assay); assay type: cell-based; conditions: 24 hr, read-out: Percent inhibition of growth; for inhibition at 0.2 ppm: 0.20 ppm; for inhibition at 12.5 ppm: 12.50 ppm
Protocol: (§1) The assay of this Example measures the efficacy of the biocides at preventing growth of a consortium of bacteria in a dilute mineral salts medium. The medium contains (in mg/l) the following components: FeCl3.6H2O (1); CaCl2.2H2O (10); MgSO4.7H2O (22.5); (NH4)2SO4 (40); KH2PO4 (10); K2HPO4 (25.5); Yeast Extract (10); and glucose (100). After all components are added to deionized water, the pH of the medium is adjusted to 7.5. Following filter sterilization, aliquots are dispensed in […] quantities to sterile microtiter plate wells. Dilutions of 2,2-dibromomalonamide (“DBMAL”) and/or “Biocide B” are then added to the microtiter plate. After preparing the combinations of actives as illustrated below, each well is inoculated with 100 μl of a cell suspension containing ca. 1×10^6 cells per milliliter of a mixture of Pseudomonas aeruginosa, Klebsiella pneumoniae, Staphylococcus aureus, and Bacillus subtilis. The final total volume of medium in each well is 300 μl. Once prepared as described herein, the concentration of each active ranges from 25 ppm to 0.195 ppm as illustrated in Table 1. The resulting matrix allows testing of eight concentrations of each active and 64 combinations of actives at varying ratios.
(§2) Controls (not shown) contain the medium with no biocide added. Immediately after the microtiter plates are prepared, the optical density (OD) readings for each well are measured at 600 nm and the plates are then incubated at 37° C. for 24 hr. After the incubation period, the plates are gently agitated before OD values are collected. The OD values at t(0) are subtracted from t(24) values to determine the total amount of growth (or lack thereof) that occurs. These values are used to calculate the percent inhibition of growth caused by the presence of each biocide and each of the 64 combinations.
(§3) where • MDBMAL: Concentration of DBMAL required to inhibit ˜90% of bacterial growth when used in combination with DBNPA. • CDBMAL: Concentration of DBMAL required to inhibit ˜90% of bacterial growth when used alone. • MDBNPA: Concentration of DBNPA required to inhibit ˜90% of bacterial growth when used in combination with DBMAL. • CDBNPA: Concentration of DBNPA required to inhibit ˜90% of bacterial growth when used alone. The SI values are interpreted as follows: • SI<1: Synergistic combination • SI=1: Additive combination • SI>1: Antagonistic combination
(§4) In the Example, the amounts of biocides in the solution are measured in mg per liter of solution (mg/l). Since solution densities are approximately 1.00, the mg/l measurement corresponds to weight ppm. Both units may therefore be used interchangeably in the Examples.

[2] = tested on: consortium of bacteria: mixture of Pseudomonas aeruginosa, Klebsiella pneumoniae, Staphylococcus aureus, and Bacillus subtilis; assay: as above; assay type: cell-based; conditions: used alone, 24 hr
Protocol: as §1, §2, §3, §4

[3] = cited from earlier work

With `NC(=O)C(Br)(Br)C(N)=O` [DBMAL, 2,2-dibromomalonamide] the inhibition at 0.2 ppm ([1]; DBMAL alone) was 0%, the inhibition at 1.56 ppm ([1]; DBMAL alone) was 11% and the inhibition at 6.25 ppm ([1]; DBMAL alone) was 38%. The inhibition at 12.5 ppm ([1]; DBMAL alone) was 92% and the inhibition at 25 ppm ([1]; DBMAL alone) was 96%.

For `N#CC(Br)(Br)C(N)=O` [DBNPA, 2,2-dibromo-3-nitrilopropionamide], the inhibition at 0.2 ppm ([1]; DBNPA alone) was 0%, the inhibition at 0.39 ppm ([1]; DBNPA alone, 0.39 ppm) was 0% and the inhibition at 0.78 ppm ([1]; DBNPA alone, 0.78 ppm) was 0%. For the same compound, the inhibition at 1.56 ppm ([1]; DBNPA alone) was 75%, the inhibition at 3.13 ppm ([1]; DBNPA alone, 3.13 ppm) was 98% and the inhibition at 6.25 ppm ([1]; DBNPA alone) was 82%. The inhibition at 12.5 ppm ([1]; DBNPA alone) was 88%, the inhibition at 25 ppm ([1]; DBNPA alone) was 96% and the “Minimum concentration that caused ~90% inhibition of growth (CDBNPA)” value [2] was 3.13 mg/L. The “factor of increase of rate of disappearance” value ([3]; going from pH 6 to pH 8.9) was “about 450”, the “half life (hydrolytic degradation)” value ([3]; pH 8) was 2 h and the “half life (hydrolytic degradation)” value ([3]; pH 11.3) was 0.00694 h.
